Results reported in patent EP4459280A1, “SCREENING AND USES OF GLUTATHIONE SYNTHETASE MODULATORS” (Max-Planck-Gesellschaft zur Förderung der Wissenschaften …, priority 2023, dated 2024).
Values belong to the compound of their own block, whether it stands above or below them. Residues, ends and D or L forms follow the SMILES beside them. *: point of attachment. Cbz = O=C(OCc1ccccc1)*

Legend:
HMGCR [1] = experiment: Immunoblotting for HMGCR in U2OS cells; format: cell-based, human; settings: for rescue of HMGCR in glutamine-starved cells: U2OS w/o glutamine 24h, then treated 24h: 1mM sodium pyruvate, DON at indicated concentrations, 2 mM D-gln; for loss of HMGCR during glutamine withdrawal: U2OS gln-, αKG 1 mM (24h), ISRIB 200nM (8h)
Procedure: Cells were tested frequently for Mycoplasma infection by PCR.
(§1) Primary antibodies were incubated in PBS-T overnight.

HMGCR [2] = experiment: Immunoblotting for HMGCR in HepG2 cells; format: cell-based, human
Description: (§2) HeLa adenocarcinoma cells, HepG2 hepatocellular carcinoma, and Wild-type (WT) MEFs as well as Mfn1^-/^-, and Mfn2^-/- mouse embryonic fibroblasts (MEFs) were obtained from ATCC (CCL-2, HB-8065, CRL-2991, CRL-2992, and CRL-2993, respectively). eGFP-SCAP-expressing CHO Chinese hamster ovary cells were provided by Drs. J Goldstein and M Brown (U of Texas Southwestern Medical Center); WT and MFN2 KO U2OS cells were provided by Dr. Edward A Fon (McGill University, Montreal, Canada). All cell lines were cultured in complete DMEM (cDMEM: DMEM + 10% heat-inactivated FBS + 1%P/S) at 5% CO2 except for CHO cells which were cultured in DMEM/F12 media containing 5% heat-inactivated FBS. For all the experiments, cells were plated and cultivated without FBS (DMEM and 10% H20 for cell culture + 1%P/S) to promote cholesterol synthesis. Cells were tested frequently for Mycoplasma infection by PCR.
For all experiments, unless otherwise indicated, cells were plated in complete DMEM. The next day cell monolayers were rinsed 2X with 1X PBS and cultured in DMEM overnight, followed by treatments as indicated in text. Whole cells were harvested in chilled lysis buffer (50mM Hepes-KOH pH 7.4, 40mM NaCl, 2mM EDTA, 1.5mM NaVO4, 50mM NaF, 10mM NaPyrophosphate, 10mM, NaBetaGlycerophosphate (disodium salt pentahydrate), 1% Triton X-100) containing 0.25U/uL. Lysates were subsequently shaken at 1500 rpm at 37°C for 15min, centrifuged for 5 min at 1200 rpm at 4°C, and the supernatant was transferred into a fresh tube. Protein concentration was quantified using Pierce™ BCA Protein Assay Kit and after diluted with 5X SDS added to a final of 1X SDS. 10 ug of protein was applied in an SDS-PAGE gel and transferred to PVDF membranes. Membranes were blocked with PBS-0.05% Tween 20 (PBS-T) and 5% non-fat milk for 30min. Primary antibodies were incubated in PBS-T overnight. Following incubation, blots were washed three times in PBS-T and then incubated with horseradish peroxidase (HRP)-conjugated anti-mouse IgG (CST #7076) or anti-rabbit IgG (CST #7074) at a 1:10000 dilution for 60 minutes ar RT and developed using a chemiluminescence system (Pierce™ ECL Western Blotting Substrate or Pierce SuperSignal™ West Atto Ultimate Sensitivity Substrate; ThermoFisher Scientific). […]

GLUL = GLUL (Homo sapiens, UniProt P15104); settings: HepG2, 500 µM MSX for 8h; immunoblot
Description: as §2
For all experiments, unless otherwise indicated, cells were plated in complete DMEM. The next day cell monolayers were rinsed 2X with 1X PBS and cultured in DMEM overnight, followed by treatments as indicated in text. […] Protein concentration was quantified using Pierce™ BCA Protein Assay Kit and after diluted with 5X SDS added to a final of 1X SDS. […]

eGFP-SCAP = experiment: Immunofluorescence assay of eGFP-SCAP localization relative to the Golgi in CHO cells; format: cell-based, Chinese hamster; settings: CHO w/o gln 24h
Procedure: For immunofluorescence (IF) analysis of eGFP-SCAP-expressing CHOs, .25 × 10^4 cells were plated in a 24-well glass-bottom sensoplate, starved of glutamine for 24h, and incubated with methionine sulfoximine at 0.5 mM with either no glutamine, 2 mM glutamine, or 1mM a-ketoglutarate. […] Following 3X rinses in 1X PBS, images were taken using an Olympus IXplore SpinSR spinning disk confocal microscope.

U2OS cells [3] = settings: U2OS cultured 24h w/o gln, supplemented 24h with 10 mM 15NH4Cl
HepG2 cells = settings: HepG2 cultured 24h w/o gln, supplemented 24h with 10 mM 15NH4Cl
SREBP2 [4] = experiment: Immunoblotting for SREBP2 cleavage in HepG2 cells; format: cell-based, human; settings: Hep G2 starved of glutamine 24h, brefeldin A 0.5 µg/ml
Procedure: as §1

p70 phospho-S6K (pS6K) = experiment: Immunoblotting for phospho-S6K (mTORC1 activity) in U2OS cells; format: cell-based, human; settings: U2OS gln-, αKG 1 mM
Procedure: (§4) For all experiments, unless otherwise indicated, cells were plated in complete DMEM. The next day cell monolayers were rinsed 2X with 1X PBS and cultured in DMEM overnight, followed by treatments as indicated in text. […] Lysates were subsequently shaken at 1500 rpm at 37°C for 15min, centrifuged for 5 min at 1200 rpm at 4°C, and the supernatant was transferred into a fresh tube. Protein concentration was quantified using Pierce™ BCA Protein Assay Kit and after diluted with 5X SDS added to a final of 1X SDS. 10 ug of protein was applied in an SDS-PAGE gel and transferred to PVDF membranes. Membranes were blocked with PBS-0.05% Tween 20 (PBS-T) and 5% non-fat milk for 30min. Primary antibodies were incubated in PBS-T overnight.

SREBP2 [5] = experiment: Immunoblotting for precursor and mature SREBP2 in U2OS cells; format: cell-based, human; settings: U2OS starved of glutamine 8h ± αKG 1 mM
Procedure: as §4

U2OS cells [6] = experiment: 13C6-glucose isotope labeling and metabolomics (AEX-MS) of TCA metabolites in U2OS cells; format: cell-based, human; settings: U2OS 24h, gln-, 1 mM αKG
Procedure: (§3) 2 × 10^5 cells were plated in complete DMEM in 6 wells plates. The following day, cells were rinsed 2X with 1X PBS and cultured in DMEM. Treatments were started the following day as indicated in the text in 6 wells plates containing. For glucose-related isotope-labeling experiments, D-Glucose-^13C6 (Sigma #389374-1G) was administed at 25mM in 1 ml of glutamine-free DMEM. For ammonia-related isotope-labeling experiments, ammonium label experiments Ammonium-^15N chloride (Sigma #299251-250MG) at 10mM. After the indicated treatments cells were washed twice with 75mM of ammonium carbonate pH =7.4 and the plates were frozen in liquid nitrogen and stored at -80°C until metabolite extraction. For metabolite extraction, 60% MeOH containing internal standards buffer was added to each well of the frozen plate. The cells were then scraped, transferred to a new tube containing MTBE and EquiSPLASH™ LIPIDOMIX® (Avanti 330731-1EA), and incubated for 30 min at 1500 rpm at 4°C. The samples were centrifuged for 10 min at 21.000xg at 4°C. The supernatants were then collected in a new tube with LCMS-grade H2O, incubated for 10 min at 1500 rpm at 15°C, and further centrifuged for 5 min at 16.000xg at 15°C to obtain a clear phase separation. The upper phase (apolar metabolites) and the down phase (polar metabolites) were collected in different tubes. After, the metabolite extracts were dried down in speed vac and stored at -80°C until further analysis by LC-HRS-MS as described further.

U2OS cells [7] = experiment: UPLC-HRMS-based measurement of 13C-cholesterol in U2OS cells; format: cell-based, human; settings: U2OS 24h, 25 mM 13C6-glucose, gln-, 1 mM αKG
Procedure: as §3, with “After, the metabolite extracts were dried down in speed vac and stored at -80°C until further analysis by LC-HRS-MS as described further.” left out

FDFT1 = experiment: Immunoblotting for FDFT1 in U2OS cells; format: cell-based, human; settings: U2OS starved of glutamine 8 hours, αKG 1 mM
Procedure: as §4

ATF6 = experiment: Immunoblotting for ATF6 cleavage in U2OS cells; format: cell-based, human; settings: U2OS w/o glutamine 24h, then 8 hours ± 2 mM gln, 15 µg/ml tunicamycin
Procedure: as §1

ATF4 = experiment: Immunoblotting for ATF4 (integrated stress response) in U2OS cells; format: cell-based, human; settings: U2OS ± gln, ISRIB 200nM, 8h
Procedure: as §1

GLUL, sequence (P15104 whole entry): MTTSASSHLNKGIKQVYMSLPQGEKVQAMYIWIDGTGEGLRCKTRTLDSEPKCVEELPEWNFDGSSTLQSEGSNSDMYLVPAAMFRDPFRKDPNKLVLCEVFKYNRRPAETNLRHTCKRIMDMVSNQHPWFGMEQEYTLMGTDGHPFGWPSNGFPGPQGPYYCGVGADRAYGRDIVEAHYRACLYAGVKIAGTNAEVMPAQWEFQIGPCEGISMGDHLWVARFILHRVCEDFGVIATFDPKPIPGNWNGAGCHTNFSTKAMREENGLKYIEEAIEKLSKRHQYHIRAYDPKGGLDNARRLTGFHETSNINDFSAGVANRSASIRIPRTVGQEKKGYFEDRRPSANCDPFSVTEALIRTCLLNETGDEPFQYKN

Compound: O=C(Cc1ccccc1)Nc1nnc(CCSCCc2nnc(NC(=O)Cc3ccccc3)s2)s1 [BPTES, bis-2-(5-phenylacetamido-1,3,4-thiadiazol-2-yl)ethylsulfide]
- HMGCR levels in glutamine-replete conditions (HMGCR [1]; U2OS 8h, 30µM BPTES, 2 mM gln, 1 mM αKG): did not reduce HMGCR levels

Compound: NC(=O)CC[C@@H](N)C(=O)O [D-glutamine]
- rescue of HMGCR in glutamine-starved cells (HMGCR [1]): do not rescue HMGCR in glutamine-starved cells

Compound: CS(=N)(=O)CCC(N)C(=O)O (centres unmarked) [MSX, 2-amino-4-(S-methylsulfonimidosyl) butanoic acid]
- HMGCR during glutamine starvation (HMGCR [2]; HepG2 starved of gln 24h, then w/out gln ± 500 µM MSX for 8h, immunoblot): further decreased HMGCR during glutamine starvation
- ammonium chloride-induced increase in HMGCR (HMGCR [2]; HepG2 starved of gln 24h, then w/out gln, 10 mM NH4Cl ± 500 µM MSX for 8h, immunoblot): prevented the ammonium chloride-induced increase in HMGCR
- migration pattern of GLUL (GLUL): led to a shift in the migration pattern of GLUL

Compound: CC(=O)C(=O)[O-].[Na+] [pyruvate, sodium pyruvate]
- rescue of HMGCR in glutamine-starved cells (HMGCR [1]): do not rescue HMGCR in glutamine-starved cells

- EC50 (HMGCR [1]; Homo sapiens, U2OS w/o gln 24h, refed gln 8h, immunoblot, read-out: half-maximal effects of glutamine on HMGCR induction): 250 to 500 µM
Compound: NC(=O)CC[C@H](N)C(=O)O [glutamine]
- glutamine concentration sufficient to induce HMGCR (HMGCR [1]; U2OS w/o gln 24h, refed gln 8h): 0.125 mM
- Percentage of cells with Golgi-localized eGFP-SCAP (eGFP-SCAP; then gln 2 mM with MSX 500 µM): > 75%

Compound: Cl.N [ammonia, ammonium chloride]
- HMGCR following ammonia treatment (HMGCR [2]; HepG2 starved of glutamine 24h, then 24 h w/o gln ± 10 mM 15NH4Cl): increased following ammonia treatment
- glutamine and HMGCR following ammonia treatment (HMGCR [1]; U2OS starved of glutamine 24h, then 24 h w/o gln ± 10 mM 15NH4Cl): neither glutamine nor HMGCR increased following ammonia treatment

Compound: CC(C)C[C@@H](C=O)NC(=O)[C@H](CC(C)C)NC(=O)[C@H](CC(C)C)NC(=O)OCc1ccccc1 [MG-132] (Cbz-Leu-Leu-Leu-aldehyde)
- depletion of HMGCR following glutamine withdrawal (HMGCR [1]; U2OS ± glutamine, MG-132 10 µM, 8h): did not prevent the depletion of HMGCR following glutamine withdrawal

Compound: Cl.N [^15N-ammonia, Ammonium-^15N chloride]
- 15N-labelled glutamine of total glutamine (U2OS cells [3]): less than 2%
- 15N-labelled glutamine of total glutamine (HepG2 cells): majority
- increase of total glutamine pool (HepG2 cells): > two-fold

Compound: [N-]=[N+]=CC(=O)CC[C@H](N)C(=O)O [DON, 6-diazo-5-oxo-L-norleucine]
- rescue of HMGCR in glutamine-starved cells (HMGCR [1]): do not rescue HMGCR in glutamine-starved cells

Compound: C[C@H]1CCC/C=C/[C@@H]2C[C@H](O)C[C@H]2[C@H](O)/C=C/C(=O)O1 [BFA, brefeldin A]
- HMGCR (HMGCR [2]; Hep G2 starved of glutamine 24h, brefeldin A 0.5 µg/ml): rescue SREBP2 cleavage and HMGCR in glutamine-starved cells to levels similar to those in glutamine-fed cells
- SREBP2 cleavage (SREBP2 [4]): rescue SREBP2 cleavage and HMGCR in glutamine-starved cells to levels similar to those in glutamine-fed cells

Compound: uridine diphosphate N-acetylglucosamine [UDP-GlcNAc]
- rescue of HMGCR levels during glutamine starvation by supplements (HMGCR [1]; U2OS w/o gln 8 hours, NEAA 100 µM, nucleosides, glucosamine 1 mM, ± αKG 1mM): did not rescue HMGCR levels during glutamine starvation

Compound: O=C(O)CCC(=O)C(=O)O [αKG, alpha-ketoglutarate]
- loss of HMGCR during glutamine withdrawal (HMGCR [1]): neither treatment prevented the loss of HMGCR during glutamine withdrawal
- HMGCR protein level (HMGCR [1]; U2OS starved of glutamine 8 hours, αKG 1 mM): decreased in cells starved of glutamine for 8 hours, despite αKG supplementation
- mTORC1 phosphorylation of S6 kinase (S6K1) (p70 phospho-S6K (pS6K)): restored mTORC1 phosphorylation of its target ribosomal protein S6 kinase (S6K1)
- processing of SREBP2 (precursor and mature forms) (SREBP2 [5]): inhibited the processing of SREBP2 with or without αKG
- localization of GFP-SCAP (eGFP-SCAP; then gln- ± αKG 1 mM with MSX 500 µM): retained GFP-SCAP in the ER
- m+2 and m+6 citrate pools (U2OS cells [6]; 25 mM 13C6-glucose): sufficient to restore m+2 and m+6 citrate pools to those of gln+ cells
- m+4 malate and succinate (U2OS cells [6]; 25 mM 13C6-glucose): blunted the increase in m+4 malate and succinate caused by glutamine starvation
- levels of TCA-intermediates (total pool size) (U2OS cells [6]): partly rescued levels of TCA-intermediates
- 13C-incorporation into cholesterol (U2OS cells [7]): did not, however, rescue the >5-fold decrease in ^13C-incorporation into cholesterol
- FDFT1 protein level (FDFT1): decreased in cells starved of glutamine for 8 hours, despite αKG supplementation

Compound: tunicamycin
- ATF6 cleavage (ATF6): similarly drove ATF6 cleavage in glutamine-fed or starved cells

Compound: O=C(COc1ccc(Cl)cc1)NC1CCC(NC(=O)COc2ccc(Cl)cc2)CC1 (centres unmarked) [ISRIB]
- loss of HMGCR during glutamine withdrawal (HMGCR [1]): neither treatment prevented the loss of HMGCR during glutamine withdrawal
- activation of ISR effector ATF4 (ATF4): blocked the activation of the key ISR effector ATF4
